Measurements: US20250049929A1, “NOVEL TETRAHYDROQUINOLINES AND PROTEOLYSIS TARGETING CHIMERA (PROTACS) COMPRISING THEM AS DEGRADERS OF SMARCA” (Boehringer Ingelheim International GmbH, priority 2021, published 2025)

Columns and labels:
[1] = molecular target: T1, SMARCA2 (Homo sapiens, UniProt P51531); assay: SMARCA2 degradation analysis by imaging in RKO cells (DC50 A2); type: cell-based; settings: tables 69, 70, 73, 76-78
T1 construct: endogenous in cells; host or cells: RKO cells (CRL-2577, ATCC)
Method: (§1) Determination of SMARCA2 and SMARCA4 Degradation (DC50 A2 and A4 [nM])
(§2) Protein Degradation Assays for SMARCA2 and SMARCA4
(§3) For degradation analysis by imaging, 1250 RKO cells (CRL-2577, ATCC) per well were seeded into 60 μL DMEM (Sigma Aldrich) supplemented with 10% FBS (Hyclone) in 384-well flat bottom plates (CellCarrier Ultra, Perkin Elmer) and incubated at 37° C. and 5% CO2 in a humidified atmosphere overnight. Compounds were added the next day using an Access Labcyte Workstation with a Labcyte Echo 550 or 555 acoustic dispenser and incubated with the cells for 4 or 24 h. Cells were fixed by adding 25 μL fixation buffer (7.4% formaldehyde (Sigma Aldrich F8775), 0.2% Triton TX100 (Sigma Aldrich F93443) in PBS) for 15 minutes at room temperature. After aspirating the fixing solution, the cells were washed once with 25 μL PBS and 25 μL of Blocking Buffer (10% Goat Serum in PBS) were added to each well and incubated for 30 minutes. Cells were washed with PBS and incubated with 20 μL mouse anti-Smarca4 (BRG1) antibody (Cell Signaling #52251) or rabbit anti-Smarca2 (BRM) antibody (Sigma Aldrich HPA029981) in blocking solution (PBS with 10% FCS) for ca. 2-4 h at RT. For detection of the nuclei, 25 μL of 5 μg/mL Hoechst 33342 (stock 10 mg/mL in H2O; Invitrogen H1399) were added together with Alexa Fluor 647 goat anti-mouse IgG (Invitrogen A-21235) or Alexa Fluor 488 goat anti-rabbit IgG (Invitrogen A-11034) in blocking solution and incubated for 60 min at RT. The cell layer was washed with 25 μL PBS, the wells were filled with 25 μL PBS and the plates sealed with an adhesive sheet. The mean intensity at 488 or 647 nm in the nucleus was measured using an Opera Phenix Plus High-Content Screening System (Perkin Elmer), values were normalized to the background and DMSO control and DC50 values were calculated and analyzed using a four-parametric logistic model.

[2] = molecular target: T2, SMARCA4 (Homo sapiens, UniProt P51532); assay: SMARCA4 degradation analysis by imaging in RKO cells (DC50 A4); type: cell-based; settings: tables 69, 70, 73, 76-78
T2 construct: endogenous in cells; host or cells: RKO cells (CRL-2577, ATCC)
Method: as §1, §2, §3

T1 sequence (P51531 whole entry): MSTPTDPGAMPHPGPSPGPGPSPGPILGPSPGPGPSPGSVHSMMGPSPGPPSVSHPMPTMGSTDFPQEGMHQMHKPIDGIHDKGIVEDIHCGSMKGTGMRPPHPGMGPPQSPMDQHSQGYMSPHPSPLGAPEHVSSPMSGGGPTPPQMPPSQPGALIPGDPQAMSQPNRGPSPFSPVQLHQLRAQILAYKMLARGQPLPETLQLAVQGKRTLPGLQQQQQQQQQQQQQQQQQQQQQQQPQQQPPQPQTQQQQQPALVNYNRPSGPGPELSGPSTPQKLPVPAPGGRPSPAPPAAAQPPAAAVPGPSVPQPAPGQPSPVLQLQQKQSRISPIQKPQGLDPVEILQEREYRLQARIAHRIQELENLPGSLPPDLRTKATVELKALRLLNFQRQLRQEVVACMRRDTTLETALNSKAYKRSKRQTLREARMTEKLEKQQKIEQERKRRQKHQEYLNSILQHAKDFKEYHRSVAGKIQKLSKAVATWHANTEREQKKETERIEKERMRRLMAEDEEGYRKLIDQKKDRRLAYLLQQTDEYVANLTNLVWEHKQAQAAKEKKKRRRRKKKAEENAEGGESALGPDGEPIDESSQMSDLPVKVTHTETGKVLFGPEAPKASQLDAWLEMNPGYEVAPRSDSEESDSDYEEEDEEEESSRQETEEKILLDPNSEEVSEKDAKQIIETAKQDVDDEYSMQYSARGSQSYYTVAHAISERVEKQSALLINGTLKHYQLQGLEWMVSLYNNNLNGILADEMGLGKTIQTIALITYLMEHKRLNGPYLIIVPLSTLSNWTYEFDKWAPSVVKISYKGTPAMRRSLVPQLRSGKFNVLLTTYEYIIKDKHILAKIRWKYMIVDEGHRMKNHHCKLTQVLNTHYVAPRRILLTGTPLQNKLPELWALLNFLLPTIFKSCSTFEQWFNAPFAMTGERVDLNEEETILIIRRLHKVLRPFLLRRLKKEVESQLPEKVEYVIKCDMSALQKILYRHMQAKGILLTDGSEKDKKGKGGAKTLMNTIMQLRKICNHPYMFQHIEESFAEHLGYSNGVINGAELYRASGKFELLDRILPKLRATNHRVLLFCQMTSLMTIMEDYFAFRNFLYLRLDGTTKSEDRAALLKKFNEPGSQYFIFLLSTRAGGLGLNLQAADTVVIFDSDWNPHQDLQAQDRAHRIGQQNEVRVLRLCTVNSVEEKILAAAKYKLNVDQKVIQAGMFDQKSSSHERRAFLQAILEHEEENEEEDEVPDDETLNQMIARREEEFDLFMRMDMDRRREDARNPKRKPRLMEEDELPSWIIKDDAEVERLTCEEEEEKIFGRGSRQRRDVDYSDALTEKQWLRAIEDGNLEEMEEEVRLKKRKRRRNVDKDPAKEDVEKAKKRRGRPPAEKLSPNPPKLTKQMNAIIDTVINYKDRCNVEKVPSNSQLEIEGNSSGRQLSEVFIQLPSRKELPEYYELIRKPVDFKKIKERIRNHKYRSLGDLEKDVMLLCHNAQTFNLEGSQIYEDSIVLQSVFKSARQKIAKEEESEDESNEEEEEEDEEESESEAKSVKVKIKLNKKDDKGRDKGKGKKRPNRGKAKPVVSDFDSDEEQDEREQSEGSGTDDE
T2 sequence (P51532 whole entry): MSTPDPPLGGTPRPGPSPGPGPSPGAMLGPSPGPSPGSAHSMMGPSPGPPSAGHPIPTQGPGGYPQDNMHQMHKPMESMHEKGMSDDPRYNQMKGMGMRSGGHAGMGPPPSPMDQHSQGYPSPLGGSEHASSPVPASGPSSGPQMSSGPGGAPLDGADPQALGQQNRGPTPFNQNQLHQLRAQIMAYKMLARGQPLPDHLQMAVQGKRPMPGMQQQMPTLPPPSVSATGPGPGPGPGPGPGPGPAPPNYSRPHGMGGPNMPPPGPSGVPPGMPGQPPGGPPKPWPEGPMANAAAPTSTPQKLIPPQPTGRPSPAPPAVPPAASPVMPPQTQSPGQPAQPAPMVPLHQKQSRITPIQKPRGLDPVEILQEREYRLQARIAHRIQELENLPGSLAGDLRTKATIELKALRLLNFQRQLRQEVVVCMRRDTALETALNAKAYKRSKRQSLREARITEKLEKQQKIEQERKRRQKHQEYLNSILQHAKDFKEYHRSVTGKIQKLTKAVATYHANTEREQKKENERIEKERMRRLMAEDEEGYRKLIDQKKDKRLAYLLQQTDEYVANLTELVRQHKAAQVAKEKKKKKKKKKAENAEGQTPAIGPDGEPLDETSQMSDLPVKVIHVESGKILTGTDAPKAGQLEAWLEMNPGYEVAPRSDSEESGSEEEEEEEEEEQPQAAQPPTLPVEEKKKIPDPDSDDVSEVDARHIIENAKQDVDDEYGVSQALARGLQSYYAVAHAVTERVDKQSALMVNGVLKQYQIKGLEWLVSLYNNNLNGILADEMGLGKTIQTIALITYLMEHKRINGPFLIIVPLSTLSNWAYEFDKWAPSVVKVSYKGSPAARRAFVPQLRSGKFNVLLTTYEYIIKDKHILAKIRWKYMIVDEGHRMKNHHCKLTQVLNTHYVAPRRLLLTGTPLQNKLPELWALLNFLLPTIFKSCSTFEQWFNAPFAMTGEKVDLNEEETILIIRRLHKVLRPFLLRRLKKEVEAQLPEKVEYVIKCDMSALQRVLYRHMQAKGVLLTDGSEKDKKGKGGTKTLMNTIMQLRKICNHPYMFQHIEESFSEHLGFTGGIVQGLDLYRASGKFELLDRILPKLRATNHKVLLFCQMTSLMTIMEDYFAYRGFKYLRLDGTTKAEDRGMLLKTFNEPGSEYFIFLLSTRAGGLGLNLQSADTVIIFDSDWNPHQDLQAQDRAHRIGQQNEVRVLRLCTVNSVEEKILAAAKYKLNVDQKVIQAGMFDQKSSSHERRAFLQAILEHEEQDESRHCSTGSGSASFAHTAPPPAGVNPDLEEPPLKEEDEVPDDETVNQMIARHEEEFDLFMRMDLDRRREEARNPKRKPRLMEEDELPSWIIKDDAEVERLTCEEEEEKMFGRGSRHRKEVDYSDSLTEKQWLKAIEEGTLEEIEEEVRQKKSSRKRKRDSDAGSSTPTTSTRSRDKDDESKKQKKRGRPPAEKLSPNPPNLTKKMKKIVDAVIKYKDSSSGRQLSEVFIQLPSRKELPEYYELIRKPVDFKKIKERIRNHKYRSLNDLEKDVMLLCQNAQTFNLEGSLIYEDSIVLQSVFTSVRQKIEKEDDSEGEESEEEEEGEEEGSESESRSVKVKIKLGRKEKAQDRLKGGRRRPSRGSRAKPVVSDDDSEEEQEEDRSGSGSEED

Structure (SMILES)	DC50 [1]	DC50 [2]
Cc1ncsc1-c1ccc([C@H](CC[C@H](C)CCN2CCC(c3ccc4c(c3)n(C3CCCC3)c3nc(=O)c5c(Br)cccc5n43)CC2)NC(=O)[C@@H]2C[C@@H](O)CN2C(=O)[C@@H](NC(=O)C2(F)CC2)C(C)(C)C)cc1 [Compound 42a]	0.9 nM	25 nM
Cc1ncsc1-c1ccc([C@H](CCCN2CCC(c3cc4c(cc3OCCCN(C)C)n3c5cccc(Br)c5c(=O)nc3n4C3CCCC3)CC2)NC(=O)[C@@H]2C[C@@H](O)CN2C(=O)[C@@H](NC(=O)C2(F)CC2)C(C)(C)C)cc1 [Compound 42aa]	10 nM	20 nM
Cc1ncsc1-c1ccc([C@H](COCCN2CCC(c3cc4c(cc3OCCN3CCN(C)CC3)n3c5cccc(Br)c5c(=O)nc3n4C3CCCC3)CC2)NC(=O)[C@@H]2C[C@@H](O)CN2C(=O)[C@@H](NC(=O)C2(F)CC2)C(C)(C)C)cc1 [Compound 42ab]	21 nM	> 200 nM
Cc1ncsc1-c1ccc([C@H](CO[C@@H](C)CN2CCC(c3ccc4c(c3)n(C3CCCC3)c3nc(=O)c5c(Br)cccc5n43)CC2)NC(=O)[C@@H]2C[C@@H](O)CN2C(=O)[C@@H](NC(=O)C2(F)CC2)C(C)(C)C)cc1 [Compound 42ac]	20 nM	> 200 nM
Cc1ncsc1-c1ccc([C@H](CCCN2CCC(c3ccc4c(c3)n(C3COC3)c3nc(=O)c5c(Br)cccc5n43)CC2)NC(=O)[C@@H]2C[C@@H](O)CN2C(=O)[C@@H](NC(=O)C2(F)CC2)C(C)(C)C)cc1 [Compound 42ad]	25 nM	> 200 nM
CC(C)(C)[C@H](NC(=O)C1(F)CC1)C(=O)N1C[C@H](O)C[C@H]1C(=O)N[C@@H](CCCN1CCC(c2ccc3c(c2)n(C2CCCC2)c2nc(=O)c4c(Br)cccc4n32)CC1)c1ccc(-c2cncs2)cc1 [Compound 42ae]	1 nM	5 nM
Cc1ncsc1-c1ccc([C@H](COCC(O)CN2CCC(c3ccc4c(c3)n(C3CCCC3)c3nc(=O)c5c(Br)cccc5n43)CC2)NC(=O)[C@@H]2C[C@@H](O)CN2C(=O)[C@@H](NC(=O)C2(F)CC2)C(C)(C)C)cc1 (some centres unmarked) [Compound 42af]	6 nM	25 nM
CCn1c2cc(C3CCN(CCCCCOC[C@H](NC(=O)[C@@H]4C[C@@H](O)CN4C(=O)[C@@H](NC(=O)C4(N(C)C)CC4)C(C)(C)C)c4ccc(-c5scnc5C)cc4)CC3)c(OCCOCCOC)cc2n2c3cccc(Br)c3c(=O)nc12 [Compound 42ag]	9 nM	> 200 nM
Cc1ncsc1-c1ccc([C@H](CCCN2CCC(c3ccc4c(c3)n(C3CCCC3)c3nc(=O)c5c(Br)cccc5n43)CC2)NC(=O)[C@@H]2C[C@@H](O)CN2C(=O)[C@@H](NC(=O)C2(N(C)C)CC2)C(C)(C)C)cc1 [Compound 42ah]	2 nM	17 nM
Cc1ncsc1-c1ccc([C@H](CCCCN2CCC(c3ccc4c(c3)n(C3CCCC3)c3nc(=O)c5c(Br)cccc5n43)CC2)NC(=O)[C@@H]2C[C@@H](O)CN2C(=O)[C@@H](NC(=O)C2(F)CC2)C(C)(C)C)cc1 [Compound 42ai]	2 nM	9 nM
Cc1ncsc1-c1ccc([C@H](COCCN2CCC(c3ccc4c(c3)n(C3CCCC3)c3nc(=O)c5c(Br)cccc5n43)CC2)NC(=O)[C@@H]2C[C@@H](O)CN2C(=O)[C@@H](NC(=O)C2(N(C)C)CC2)C(C)(C)C)cc1 [Compound 42aj]	4 nM	
Cc1ncsc1-c1ccc([C@H](COCCCN2CCC(c3ccc4c(c3)n(C3CCCC3)c3nc(=O)c5c(Br)cccc5n43)CC2)NC(=O)[C@@H]2C[C@@H](O)CN2C(=O)[C@@H](NC(=O)C2(F)CC2)C(C)(C)C)cc1 [Compound 42ak]	2 nM	11 nM
Cc1ncsc1-c1ccc([C@H](CCCN2CCC(c3cc4c(cc3OCCOCCO)n3c5cccc(Br)c5c(=O)nc3n4C3CCCC3)CC2)NC(=O)[C@@H]2C[C@@H](O)CN2C(=O)[C@@H](NC(=O)C2(F)CC2)C(C)(C)C)cc1 [Compound 42am]	0.9 nM	25 nM
Cc1ncsc1-c1ccc([C@H](CO[C@H](C)CN2CCC(c3cc4c(cc3OC[C@@H]3CCCO3)n3c5cccc(Br)c5c(=O)nc3n4C3CCCC3)CC2)NC(=O)[C@@H]2C[C@@H](O)CN2C(=O)[C@@H](NC(=O)C2(F)CC2)C23CC4CC(CC(C4)C2)C3)cc1 [Compound 42an]	0.6 nM	7 nM
Cc1ncsc1-c1ccc([C@H](CCCCCN2CCN(c3ccc4c(c3)n(C3CCCC3)c3nc(=O)c5c(Br)cccc5n43)CC2(C)C)NC(=O)[C@@H]2C[C@@H](O)CN2C(=O)[C@@H](NC(=O)C2(F)CC2)C(C)(C)C)cc1 [Compound 42ao]	1 nM	17 nM
Cc1ncsc1-c1ccc([C@H](CCCCCN2CCN(c3ccc4c(c3)n(C3CCCC3)c3nc(=O)c5c(Br)cccc5n43)[C@H](C)C2)NC(=O)[C@@H]2C[C@@H](O)CN2C(=O)[C@@H](NC(=O)C2(F)CC2)C(C)(C)C)cc1 [Compound 42aq]	1 nM	9 nM
Cc1ncsc1-c1ccc([C@H](CCCCCN2CCN(c3ccc4c(c3)n(C3CCCC3)c3nc(=O)c5c(Br)cccc5n43)[C@@H](C)C2)NC(=O)[C@@H]2C[C@@H](O)CN2C(=O)[C@@H](NC(=O)C2(F)CC2)C(C)(C)C)cc1 [Compound 42ar]	0.5 nM	2 nM
Cc1ncsc1-c1ccc([C@@H](CC[C@@H](C)CCN2CCC(c3ccc4c(c3)n(C3CCCC3)c3nc(=O)c5c(Br)cccc5n43)CC2)NC(=O)[C@@H]2C[C@@H](O)CN2C(=O)[C@@H](NC(=O)C2(F)CC2)C(C)(C)C)cc1 [Compound 42as]	82 nM	> 833 nM
Cc1ncsc1-c1ccc([C@@H](CC[C@H](C)CCN2CCC(c3ccc4c(c3)n(C3CCCC3)c3nc(=O)c5c(Br)cccc5n43)CC2)NC(=O)[C@@H]2C[C@@H](O)CN2C(=O)[C@@H](NC(=O)C2(F)CC2)C(C)(C)C)cc1 [Compound 42at]	57 nM	> 833 nM
Cc1ncsc1-c1ccc([C@H](CCCCCN2C[C@@H]3C[C@H]2CN3c2ccc3c(c2)n(C2CCCC2)c2nc(=O)c4c(Br)cccc4n32)NC(=O)[C@@H]2C[C@@H](O)CN2C(=O)[C@@H](NC(=O)C2(F)CC2)C(C)(C)C)cc1 [Compound 42au]	7 nM	> 833 nM
Cc1ncsc1-c1ccc([C@H](COCCN2CCC(c3cc4c(cc3F)n3c5cccc(Br)c5c(=O)nc3n4C3CCCC3)CC2)NC(=O)[C@@H]2C[C@@H](O)CN2C(=O)[C@@H](NC(=O)C2(F)CC2)C(C)(C)C)cc1 [Compound 42av]	13 nM	162 nM
Cc1ncsc1-c1ccc([C@H](CCCCCN2CCC(c3cc4c(cn3)n3c5cccc(Br)c5c(=O)nc3n4C3CCCC3)CC2)NC(=O)[C@@H]2C[C@@H](O)CN2C(=O)[C@@H](NC(=O)C2(F)CC2)C(C)(C)C)cc1 [Compound 42aw]	6 nM	> 833 nM
Cc1ncsc1-c1ccc([C@H](CCCCN(C)C2CCC(c3ccc4c(c3)n(C3CCCC3)c3nc(=O)c5c(Br)cccc5n43)CC2)NC(=O)[C@@H]2C[C@@H](O)CN2C(=O)[C@@H](NC(=O)C2(F)CC2)C(C)(C)C)cc1 (some centres unmarked) [Compound 42ax]	7 nM	29 nM
COc1cc2c(cc1C1CCN(CCOC[C@H](NC(=O)[C@@H]3C[C@@H](O)CN3C(=O)[C@@H](NC(=O)C3(F)CC3)C(C)(C)C)c3ccc(-c4scnc4C)cc3)CC1)n(C1CCCC1)c1nc(=O)c3c(Br)cccc3n21 [Compound 42ay]	15 nM	109 nM
